Like-named read-outs stand apart in the source and are kept apart here.
Assays:
Assay in all cases: Radiolabeled ATP kinase assay, panel of 60 kinases (Table S5)
Type in all cases: biochemical
[1] = target: T1, panel of 60 human kinases (Homo sapiens, UniProt P00519); details: ABL1; 0.1 μM; 10 μM ATP; read-out: % Enzyme Activity (relative to DSMO controls)
T1 construct: purchased Reaction Biology Corp
In short: (§1)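 Cell-free radiolabeled-ATP kinase assays across a panel of 60 kinases; each compound tested at 0.1 μM and 0.5 μM for inhibition.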

[2] = target: T2, panel of 60 human kinases (Homo sapiens, UniProt P11362); details: FGFR1; 0.1 μM; 10 μM ATP; read-out: % Enzyme Activity (relative to DSMO controls)
T2 construct: purchased Reaction Biology Corp
In short: as §1

[3] = target: T3, panel of 60 human kinases (Homo sapiens, UniProt P21802); details: FGFR2; 0.1 μM; 10 μM ATP; read-out: % Enzyme Activity (relative to DSMO controls)
T3 construct: purchased Reaction Biology Corp
In short: as §1

[4] = target: T4, panel of 60 human kinases (Homo sapiens, UniProt P22607); details: FGFR3; 0.1 μM; 10 μM ATP; read-out: % Enzyme Activity (relative to DSMO controls)
T4 construct: purchased Reaction Biology Corp
In short: as §1

[5] = target: T5, panel of 60 human kinases (Homo sapiens, UniProt P42684); details: ABL2/ARG; 0.1 μM; 10 μM ATP; read-out: % Enzyme Activity (relative to DSMO controls)
T5 construct: purchased Reaction Biology Corp
In short: as §1

[6] = target: T6, panel of 60 human kinases (Homo sapiens, UniProt P49759); details: CLK1; 0.1 μM; 10 μM ATP; read-out: % Enzyme Activity (relative to DSMO controls)
T6 construct: purchased Reaction Biology Corp
In short: as §1

[7] = target: T7, panel of 60 human kinases (Homo sapiens, UniProt Q00534); details: 0.1 μM, 10 μM ATP, read-out: % Enzyme Activity (relative to DSMO controls)
T7 construct: purchased Reaction Biology Corp
In short: as §1

[8] = target: T8, panel of 60 human kinases (Homo sapiens, UniProt Q08345); details: DDR1; 0.1 μM; 10 μM ATP; read-out: % Enzyme Activity (relative to DSMO controls)
T8 construct: purchased Reaction Biology Corp
In short: as §1

[9] = target: T9, panel of 60 human kinases (Homo sapiens, UniProt Q16288); details: TRKC; 0.1 μM; 10 μM ATP; read-out: % Enzyme Activity (relative to DSMO controls)
T9 construct: purchased Reaction Biology Corp
In short: as §1

[10] = target: T10, panel of 60 human kinases (Homo sapiens, UniProt Q7L7X3); details: TAOK1; 0.1 μM; 10 μM ATP; read-out: % Enzyme Activity (relative to DSMO controls)
T10 construct: purchased Reaction Biology Corp
T10 sequence (Q7L7X3 1-1001): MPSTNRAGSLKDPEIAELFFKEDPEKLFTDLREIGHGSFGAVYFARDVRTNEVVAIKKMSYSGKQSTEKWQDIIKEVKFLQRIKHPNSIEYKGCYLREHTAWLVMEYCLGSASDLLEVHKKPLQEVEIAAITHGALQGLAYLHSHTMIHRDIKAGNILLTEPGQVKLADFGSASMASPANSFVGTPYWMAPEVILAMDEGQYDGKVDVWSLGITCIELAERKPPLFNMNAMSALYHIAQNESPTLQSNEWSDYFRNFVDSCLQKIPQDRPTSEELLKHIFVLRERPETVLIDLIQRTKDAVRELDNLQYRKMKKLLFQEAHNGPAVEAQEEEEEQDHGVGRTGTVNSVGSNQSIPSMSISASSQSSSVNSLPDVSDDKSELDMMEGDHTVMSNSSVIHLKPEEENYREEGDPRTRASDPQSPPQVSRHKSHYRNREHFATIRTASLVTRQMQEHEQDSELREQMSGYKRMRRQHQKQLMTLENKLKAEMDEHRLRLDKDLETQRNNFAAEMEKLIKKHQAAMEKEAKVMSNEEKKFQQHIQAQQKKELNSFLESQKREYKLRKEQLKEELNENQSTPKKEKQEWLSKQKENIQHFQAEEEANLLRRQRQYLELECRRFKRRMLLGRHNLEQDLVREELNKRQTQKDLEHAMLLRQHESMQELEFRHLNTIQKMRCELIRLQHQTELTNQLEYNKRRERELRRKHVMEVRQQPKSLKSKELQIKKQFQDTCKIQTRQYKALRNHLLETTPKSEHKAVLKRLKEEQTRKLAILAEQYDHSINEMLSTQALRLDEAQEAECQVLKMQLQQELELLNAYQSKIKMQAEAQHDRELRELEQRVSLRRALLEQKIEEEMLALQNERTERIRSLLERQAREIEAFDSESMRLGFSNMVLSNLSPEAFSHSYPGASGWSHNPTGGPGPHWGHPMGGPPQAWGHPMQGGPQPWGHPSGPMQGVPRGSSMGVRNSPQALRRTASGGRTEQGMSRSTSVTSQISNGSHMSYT
In short: as §1

[11] = target: T11, panel of 60 human kinases (Homo sapiens, UniProt Q92630); details: DYRK2; 0.1 μM; 10 μM ATP; read-out: % Enzyme Activity (relative to DSMO controls)
T11 construct: purchased Reaction Biology Corp
T11 sequence (Q92630 1-601): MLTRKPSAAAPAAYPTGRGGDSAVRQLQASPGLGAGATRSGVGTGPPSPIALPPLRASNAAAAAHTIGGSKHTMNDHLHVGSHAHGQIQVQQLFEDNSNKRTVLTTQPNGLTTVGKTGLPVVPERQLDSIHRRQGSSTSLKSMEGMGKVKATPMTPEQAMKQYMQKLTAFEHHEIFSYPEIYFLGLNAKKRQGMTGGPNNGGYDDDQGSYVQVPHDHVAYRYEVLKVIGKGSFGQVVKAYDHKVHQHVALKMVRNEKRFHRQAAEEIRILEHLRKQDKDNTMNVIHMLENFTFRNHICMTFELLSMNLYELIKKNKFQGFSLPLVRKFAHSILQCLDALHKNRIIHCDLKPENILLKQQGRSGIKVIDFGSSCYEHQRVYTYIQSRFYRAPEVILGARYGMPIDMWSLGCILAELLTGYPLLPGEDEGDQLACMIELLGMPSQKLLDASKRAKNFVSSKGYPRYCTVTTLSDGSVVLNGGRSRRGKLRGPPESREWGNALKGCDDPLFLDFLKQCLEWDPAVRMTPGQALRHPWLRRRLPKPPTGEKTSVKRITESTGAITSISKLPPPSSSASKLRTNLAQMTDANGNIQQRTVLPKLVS
In short: as §1

T9 sequence (Q16288 32-839): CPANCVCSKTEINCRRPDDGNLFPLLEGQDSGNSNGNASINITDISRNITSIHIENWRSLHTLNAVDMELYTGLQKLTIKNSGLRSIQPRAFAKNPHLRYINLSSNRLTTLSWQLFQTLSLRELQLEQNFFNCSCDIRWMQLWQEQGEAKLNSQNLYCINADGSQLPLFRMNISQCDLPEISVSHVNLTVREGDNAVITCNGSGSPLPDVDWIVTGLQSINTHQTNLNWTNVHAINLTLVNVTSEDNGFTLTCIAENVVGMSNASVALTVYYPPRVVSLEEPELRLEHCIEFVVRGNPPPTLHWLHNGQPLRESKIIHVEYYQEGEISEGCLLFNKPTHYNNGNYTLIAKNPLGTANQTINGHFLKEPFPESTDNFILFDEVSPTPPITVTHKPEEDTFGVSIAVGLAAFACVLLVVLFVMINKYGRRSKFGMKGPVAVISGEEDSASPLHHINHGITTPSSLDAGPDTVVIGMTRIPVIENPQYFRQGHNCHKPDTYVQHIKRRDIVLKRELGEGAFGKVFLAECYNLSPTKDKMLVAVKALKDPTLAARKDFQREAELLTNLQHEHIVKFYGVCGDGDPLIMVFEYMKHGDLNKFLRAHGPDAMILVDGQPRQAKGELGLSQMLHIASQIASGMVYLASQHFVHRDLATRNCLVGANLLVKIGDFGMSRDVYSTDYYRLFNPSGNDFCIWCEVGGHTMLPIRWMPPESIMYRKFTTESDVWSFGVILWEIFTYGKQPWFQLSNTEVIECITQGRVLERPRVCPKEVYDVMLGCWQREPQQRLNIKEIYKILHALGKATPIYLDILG
T5 sequence (P42684 whole entry): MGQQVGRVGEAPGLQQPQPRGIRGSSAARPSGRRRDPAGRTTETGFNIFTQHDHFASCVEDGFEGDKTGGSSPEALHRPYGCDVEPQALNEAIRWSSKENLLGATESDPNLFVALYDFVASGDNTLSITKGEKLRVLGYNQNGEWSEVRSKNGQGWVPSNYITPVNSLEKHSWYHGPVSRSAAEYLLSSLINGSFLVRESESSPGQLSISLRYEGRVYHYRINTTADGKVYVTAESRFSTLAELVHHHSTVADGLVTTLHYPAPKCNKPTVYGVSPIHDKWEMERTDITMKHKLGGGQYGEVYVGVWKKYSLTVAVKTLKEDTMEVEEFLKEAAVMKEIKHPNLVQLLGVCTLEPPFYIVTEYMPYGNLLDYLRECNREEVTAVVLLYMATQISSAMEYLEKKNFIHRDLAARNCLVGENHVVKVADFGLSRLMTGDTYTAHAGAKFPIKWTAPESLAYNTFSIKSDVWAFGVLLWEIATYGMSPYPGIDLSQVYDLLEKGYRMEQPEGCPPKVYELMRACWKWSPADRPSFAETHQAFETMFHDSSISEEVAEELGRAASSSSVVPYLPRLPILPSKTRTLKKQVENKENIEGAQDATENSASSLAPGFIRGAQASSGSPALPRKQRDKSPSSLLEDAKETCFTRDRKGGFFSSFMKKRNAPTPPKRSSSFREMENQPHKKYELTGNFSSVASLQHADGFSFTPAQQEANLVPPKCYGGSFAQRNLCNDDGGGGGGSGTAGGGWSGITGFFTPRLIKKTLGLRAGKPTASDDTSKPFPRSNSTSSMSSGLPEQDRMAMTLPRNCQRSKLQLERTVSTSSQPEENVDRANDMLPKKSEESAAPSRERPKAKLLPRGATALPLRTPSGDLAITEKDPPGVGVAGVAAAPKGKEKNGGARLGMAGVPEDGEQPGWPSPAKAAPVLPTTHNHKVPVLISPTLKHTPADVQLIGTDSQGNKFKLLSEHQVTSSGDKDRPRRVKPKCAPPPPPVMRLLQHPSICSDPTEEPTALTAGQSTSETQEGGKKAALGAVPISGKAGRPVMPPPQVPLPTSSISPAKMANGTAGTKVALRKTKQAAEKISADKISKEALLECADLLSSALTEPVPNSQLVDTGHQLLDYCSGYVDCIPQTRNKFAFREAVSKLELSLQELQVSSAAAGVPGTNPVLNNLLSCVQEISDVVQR
T6 sequence (P49759 whole entry): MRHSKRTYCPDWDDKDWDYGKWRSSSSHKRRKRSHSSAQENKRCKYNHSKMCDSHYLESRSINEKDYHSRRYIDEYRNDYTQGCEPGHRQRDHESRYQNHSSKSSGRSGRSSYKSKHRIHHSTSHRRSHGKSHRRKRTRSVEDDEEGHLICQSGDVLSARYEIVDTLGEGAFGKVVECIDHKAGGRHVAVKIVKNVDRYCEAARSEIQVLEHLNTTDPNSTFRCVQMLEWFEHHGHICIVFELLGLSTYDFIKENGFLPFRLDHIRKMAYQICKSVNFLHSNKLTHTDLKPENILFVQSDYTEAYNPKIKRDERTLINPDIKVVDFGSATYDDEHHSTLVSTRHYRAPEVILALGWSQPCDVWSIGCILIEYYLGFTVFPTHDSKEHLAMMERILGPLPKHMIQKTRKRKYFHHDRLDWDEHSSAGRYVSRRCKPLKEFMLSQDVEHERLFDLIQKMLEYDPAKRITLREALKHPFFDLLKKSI
T2 sequence (P11362 22-822): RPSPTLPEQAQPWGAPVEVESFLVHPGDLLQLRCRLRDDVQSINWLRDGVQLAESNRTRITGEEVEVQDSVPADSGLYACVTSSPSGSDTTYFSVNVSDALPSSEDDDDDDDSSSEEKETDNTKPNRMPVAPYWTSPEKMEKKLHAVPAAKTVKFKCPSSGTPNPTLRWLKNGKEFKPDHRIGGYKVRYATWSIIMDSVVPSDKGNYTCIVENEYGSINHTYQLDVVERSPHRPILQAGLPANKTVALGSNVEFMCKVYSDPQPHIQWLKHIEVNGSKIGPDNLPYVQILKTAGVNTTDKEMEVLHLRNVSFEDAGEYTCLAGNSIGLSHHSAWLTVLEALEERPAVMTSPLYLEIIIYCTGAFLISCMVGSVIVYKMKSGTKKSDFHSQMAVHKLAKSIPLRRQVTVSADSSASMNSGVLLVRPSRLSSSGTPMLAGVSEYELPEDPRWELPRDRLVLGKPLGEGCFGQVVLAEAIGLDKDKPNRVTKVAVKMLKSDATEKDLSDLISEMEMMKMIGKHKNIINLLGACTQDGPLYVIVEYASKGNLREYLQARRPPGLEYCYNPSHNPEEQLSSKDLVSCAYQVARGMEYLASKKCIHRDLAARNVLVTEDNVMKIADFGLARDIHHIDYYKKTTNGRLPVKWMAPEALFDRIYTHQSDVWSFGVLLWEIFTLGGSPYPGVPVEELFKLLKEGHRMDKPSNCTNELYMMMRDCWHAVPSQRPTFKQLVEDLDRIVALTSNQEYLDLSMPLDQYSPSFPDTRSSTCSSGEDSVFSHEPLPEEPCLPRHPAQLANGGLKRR
T8 sequence (Q08345 19-913): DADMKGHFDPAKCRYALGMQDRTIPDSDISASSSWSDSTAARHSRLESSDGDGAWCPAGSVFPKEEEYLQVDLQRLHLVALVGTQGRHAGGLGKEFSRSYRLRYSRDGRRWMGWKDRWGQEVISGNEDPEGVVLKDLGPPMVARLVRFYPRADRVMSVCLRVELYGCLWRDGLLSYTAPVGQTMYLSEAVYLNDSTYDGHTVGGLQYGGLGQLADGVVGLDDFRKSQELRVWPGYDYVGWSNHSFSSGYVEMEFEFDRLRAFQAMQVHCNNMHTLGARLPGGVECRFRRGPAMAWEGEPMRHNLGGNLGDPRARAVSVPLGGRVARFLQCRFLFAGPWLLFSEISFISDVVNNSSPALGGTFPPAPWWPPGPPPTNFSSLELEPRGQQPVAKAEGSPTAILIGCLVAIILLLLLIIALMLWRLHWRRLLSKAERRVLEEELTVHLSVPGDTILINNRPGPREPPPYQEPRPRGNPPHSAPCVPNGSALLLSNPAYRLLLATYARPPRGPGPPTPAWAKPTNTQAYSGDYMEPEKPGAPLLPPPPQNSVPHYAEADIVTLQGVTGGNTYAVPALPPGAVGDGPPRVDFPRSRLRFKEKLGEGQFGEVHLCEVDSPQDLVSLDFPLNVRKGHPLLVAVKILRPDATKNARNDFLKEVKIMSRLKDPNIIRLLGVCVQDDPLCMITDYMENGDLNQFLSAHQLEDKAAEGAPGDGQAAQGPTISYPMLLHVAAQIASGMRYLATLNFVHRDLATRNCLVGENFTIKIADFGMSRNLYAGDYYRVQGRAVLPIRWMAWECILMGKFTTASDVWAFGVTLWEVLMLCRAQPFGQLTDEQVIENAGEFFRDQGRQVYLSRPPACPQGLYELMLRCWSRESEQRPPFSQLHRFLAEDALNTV
T4 sequence (P22607 23-806): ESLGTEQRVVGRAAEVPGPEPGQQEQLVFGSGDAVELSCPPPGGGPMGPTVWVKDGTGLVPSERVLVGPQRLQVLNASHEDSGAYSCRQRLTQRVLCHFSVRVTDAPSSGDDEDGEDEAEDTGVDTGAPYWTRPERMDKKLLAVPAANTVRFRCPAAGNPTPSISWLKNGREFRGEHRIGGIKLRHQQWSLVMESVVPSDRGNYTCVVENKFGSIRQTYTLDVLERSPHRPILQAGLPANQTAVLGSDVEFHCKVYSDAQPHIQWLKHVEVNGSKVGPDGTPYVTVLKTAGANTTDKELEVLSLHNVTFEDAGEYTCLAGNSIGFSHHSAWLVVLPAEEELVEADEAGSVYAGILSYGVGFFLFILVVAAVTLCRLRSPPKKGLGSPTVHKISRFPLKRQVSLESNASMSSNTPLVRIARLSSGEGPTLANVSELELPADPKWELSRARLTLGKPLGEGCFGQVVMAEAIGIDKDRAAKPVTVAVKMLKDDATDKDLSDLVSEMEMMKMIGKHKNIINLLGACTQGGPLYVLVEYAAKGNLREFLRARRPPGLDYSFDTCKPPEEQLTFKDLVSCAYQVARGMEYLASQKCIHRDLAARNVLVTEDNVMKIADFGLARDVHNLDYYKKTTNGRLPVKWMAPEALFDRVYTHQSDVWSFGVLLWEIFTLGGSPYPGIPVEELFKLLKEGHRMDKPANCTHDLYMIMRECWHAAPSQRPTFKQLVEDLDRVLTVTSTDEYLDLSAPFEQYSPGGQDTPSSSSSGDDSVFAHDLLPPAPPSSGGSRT

SMILES	remaining activity at 0.1 µM [1]	remaining activity at 0.1 µM [2]	remaining activity at 0.1 µM [3]	remaining activity at 0.1 µM [4]	remaining activity at 0.1 µM [5]	remaining activity at 0.1 µM [6]	remaining activity at 0.1 µM ([7]; CDK6/cyclin D1)	remaining activity at 0.1 µM ([7]; CDK6/cyclin D3)	remaining activity at 0.1 µM [8]	remaining activity at 0.1 µM [9]	remaining activity at 0.1 µM [10]	remaining activity at 0.1 µM [11]
COc1ccccc1-c1c[nH]c2ncc(-c3ccc(CN4CCN(C)CC4)cc3)cc12 [Compound 7at, 3-(2-Methoxyphenyl)-5-(4-((4-methylpiperazin-1-yl)methyl)phenyl)-1H-pyrrolo[2,3-b]pyridine]	19%	96.4%	83.4%	82.1%	21.8%	78.4%	7.23%	46%	68.1%	34.8%	40.5%	96.8%
Cc1nn(C)c(C)c1-c1c[nH]c2ncc(-c3ccc(CN4CCN(C)CC4)cc3)cc12 [Compound 7ai, 5-(4-((4-Methylpiperazin-1-yl)methyl)phenyl)-3-(1,3,5-trimethyl-1H-pyrazol-4-yl)-1H-pyrrolo[2,3-b]pyridine]	26.3%	97.5%	80.9%	82%	44.4%	66.4%	47.9%	76%	76.5%	13.1%	93.3%	66.5%
CN1CCN(Cc2ccc(-c3cnc4[nH]cc(-c5ccncc5)c4c3)cc2)CC1 [Compound 7n, 5-(4-((4-Methylpiperazin-1-yl)methyl)phenyl)-3-(pyridin-4-yl)-1H-pyrrolo[2,3-b]pyridine]	88.4%	100%	94%	85.9%	91.5%	34.9%	23.4%	51.8%	79.7%	25.4%	87.4%	63.6%
CN1CCN(Cc2ccc(-c3cnc4[nH]cc(-c5cnn(Cc6ccccc6)c5)c4c3)cc2)CC1 [Compound 7ah, 3-(1-Benzyl-1H-pyrazol-4-yl)-5-(4-((4-methylpiperazin-1-yl)methyl)phenyl)-1H-pyrrolo[2,3-b]pyridine]	81%	91.4%	73.8%	76.6%	95.1%	3.41%	28.6%	33.2%	38.3%	9.83%	62.1%	59.3%
CN1CCN(Cc2ccc(-c3cnc4[nH]cc(-c5ccoc5)c4c3)cc2)CC1 [Compound 7w, 3-(Furan-3-yl)-5-(4-((4-methylpiperazin-1-yl)methyl)phenyl)-1H-pyrrolo[2,3-b]pyridine]	64.8%	93.1%	77.8%	70.7%	77.6%	81.9%	58.5%	68.4%	75.2%	25.8%	90%	90.4%
CN1CCN(Cc2ccc(-c3cnc4[nH]cc(-c5cccc(Cl)c5)c4c3)cc2)CC1 [Compound 7ad, 3-(3-Chlorophenyl)-5-(4-((4-methylpiperazin-1-yl)methyl)phenyl)-1H-pyrrolo[2,3-b]pyridine]	77.3%	98.2%	77.6%	70.1%	83.7%	81.2%	45.8%	58.8%	82%	51.2%	75.4%	69.7%
CN1CCN(Cc2ccc(-c3cnc4[nH]cc(-c5ccc6[nH]ccc6c5)c4c3)cc2)CC1 [Compound 1, 3-(1H-Indol-5-yl)-5-(4-((4-methylpiperazin-1-yl)methyl)phenyl)-1H-pyrrolo[2,3-b]pyridine, reference compound]	46.6%	82.7%	52.9%	43.5%	54.9%	33%	47.2%	66.1%	47.5%	6.69%	63.5%	44%
CN1CCN(Cc2ccc(-c3cnc4[nH]cc(-c5ccc6c(c5)OCCO6)c4c3)cc2)CC1 [Compound 7d, 3-(2,3-Dihydrobenzo[b][1,4]dioxin-6-yl)-5-(4-((4-methylpiperazin-1-yl)methyl)phenyl)-1H-pyrrolo[2,3-b]pyridine]	74.5%	93.2%	70.4%	73.4%	72.7%	1.66%	15.1%	52.3%	57.4%	17.7%	37.3%	8.19%
